Reference: US20110257176A1, “NITROGEN HETEROCYCLE DERIVATIVES AS PROTEASOME MODULATORS” (INSTITUT NATIONAL DE LA SANTE ET DE LA RECHERCHE MEDICALE …, priority 2008, published 2011)

Experiments:
[1] = biological target: rabbit reticulocyte 20S proteasome, post-acid (PA) activity (Oryctolagus cuniculus, UniProt G1T235); assay: 20S proteasome post-acid (PA) activity, Z-LLE-βNA hydrolysis; assay type: biochemical; design: key to Inhibition of post-acid activity (NI): NI: No Inhibition; details: rabbit 20S proteasome; for Inhibition of post-acid activity (NI): screened at 100 μM and 50 μM; for IC50: pH 8, 37° C.
Protocol: (§1) Rabbit erythrocyte 20S proteasome was obtained from Boston Biochem, Cambridge, USA. The fluorogenic substrates Suc-LLVY-AMC, Boc-LRR-AMC and Z-LLE-βNA used to measure the proteasome activities CT-L, T-L and PA respectively were purchased from Bachem (France). Other reagents and solvents were purchased from commercial sources. Fluorescence was measured using a BMG Fluostar microplate reader.
(§2) Compounds 1-23 were tested for their potential to inhibit the CT-L, T-L and PA activities of the rabbit reticulocyte 20S proteasome. Enzyme activities were determined by monitoring the hydrolysis of the appropriate fluorogenic substrate (λexc=360, λem=465 nm for AMC substrates, and λexc=340, λem=405 nm for the βNA substrate) for 1 h at 37° C.
(§3) In the in vitro screening, each compound was tested in duplicate against the three activities, at 100 μM and 50 μM in the corresponding buffer. The buffer were (pH 8): 50 mM Tris, 150 mM NaCl, 10% (v/v) glycerol, 0.025% (w/v) SDS, and 3% (v/v) DMSO (CT-L and PA activities); 50 mM Tris, 150 mM NaCl, 10% (v/v) glycerol, and 3% (v/v) DMSO (T-L activity).
(§4) The inhibitory activity of compounds is expressed as IC50, which corresponds to the concentration of proteasome inhibitor leading to a loss of activity of 50%. The values of IC50 were calculated by fitting the experimental data to equation 1: % Inhibition=100×(1−Vi/V0)=100 [I]0/(IC50+[I]0), or equation 2: % Inhibition=100 [I]0^nH/(IC50^nH+[I]0^nH), where Vi is the initial rate in the presence of the inhibitor, V0 is the initial rate in the absence of the inhibitor, [I]0 is the inhibitor concentration, nH is the Hill number (FIG. 1).

[2] = tested on: rabbit reticulocyte 20S proteasome, trypsin-like (T-L) activity; assay: 20S proteasome trypsin-like (T-L) activity, Boc-LRR-AMC hydrolysis; assay type: biochemical; design: key to Inhibition of trypsin-like activity (NI): NI: No Inhibition; details: rabbit 20S proteasome; for Inhibition of trypsin-like activity (NI): screened at 100 μM and 50 μM
Protocol: as §1, §2, §3, §4

[3] = biological target: T1, rabbit reticulocyte 20S proteasome, chymotrypsin-like (CT-L) activity (UniProt G1T4Q9); assay: 20S proteasome chymotrypsin-like (CT-L) activity, Suc-LLVY-AMC hydrolysis; assay type: biochemical; details: rabbit 20S proteasome, pH 8, 37° C.
T1 construct: IC50 on chymotrypsin-like activity; other: rabbit 20S proteasome, pH 8, 37° C; Rabbit erythrocyte 20S proteasome was obtained from Boston Biochem, Cambridge, USA
Protocol: as §1, §2, §3, §4

[4] = biological target: T2, human erythrocyte 20S proteasome, post-acid (PA) activity (Homo sapiens, UniProt P28072); assay: 20S proteasome post-acid (PA) activity, Z-LLE-βNA hydrolysis; assay type: biochemical; design: key: NI: No Inhibition; details: screened at 100 and 50 μM
T2 construct: three activities of human erythrocyte 20S proteasome; from tissue; host or cells: human erythrocytes
Protocol: as §1, §4
(§5) Compounds 24, 25 and 31-35 were tested in duplicate against three activities of human erythrocyte 20S proteasome at 100 and 50 μM in the appropriate buffer (pH 7.5): 20 mM Tris HCl, 10% (v/v) glycerol, 0.01% (w/v) SDS and 2% DMSO (CT-L and PA activities); 20 mM Tris HCl, 10% (v/v) glycerol, and 2% DMSO (T-L activity). The inhibitory activities were analyzed as described above for compounds 1-23.

[5] = biological target: T3, human erythrocyte 20S proteasome, chymotrypsin-like (CT-L) activity (Homo sapiens, UniProt P28074); assay: 20S proteasome chymotrypsin-like (CT-L) activity, Suc-LLVY-AMC hydrolysis; assay type: biochemical; details: for IC50: pH 7.5
T3 construct: three activities of human erythrocyte 20S proteasome; from tissue; host or cells: human erythrocytes
Protocol: as §1, §4, §5

[6] = biological target: T4, human erythrocyte 20S proteasome, trypsin-like (T-L) activity (Homo sapiens, UniProt Q99436); assay: 20S proteasome trypsin-like (T-L) activity, Boc-LRR-AMC hydrolysis; assay type: biochemical; design: key to Inhibition of trypsin-like activity (NI): NI: No Inhibition; details: for IC50: pH 7.5; for inhibition at 100 µM: 100 μM inhibitor, read-out: % inhibition (inhibitor concentration) on trypsin-like activity
T4 construct: three activities of human erythrocyte 20S proteasome; from tissue; host or cells: human erythrocytes
Protocol: as §1, §4, §5

[7] = biological target: T5, rabbit reticulocyte 20S proteasome, chymotrypsin-like (CT-L) activity (Oryctolagus cuniculus, UniProt G1T4Q9); assay: 20S proteasome chymotrypsin-like (CT-L) activity, Suc-LLVY-AMC hydrolysis; assay type: biochemical; details: rabbit 20S proteasome, pH 8, 37° C.
T5 construct: IC50 on chymotrypsin-like activity; other: rabbit 20S proteasome, pH 8, 37° C; Rabbit erythrocyte 20S proteasome was obtained from Boston Biochem, Cambridge, USA
T5 sequence (G1T4Q9 1-263): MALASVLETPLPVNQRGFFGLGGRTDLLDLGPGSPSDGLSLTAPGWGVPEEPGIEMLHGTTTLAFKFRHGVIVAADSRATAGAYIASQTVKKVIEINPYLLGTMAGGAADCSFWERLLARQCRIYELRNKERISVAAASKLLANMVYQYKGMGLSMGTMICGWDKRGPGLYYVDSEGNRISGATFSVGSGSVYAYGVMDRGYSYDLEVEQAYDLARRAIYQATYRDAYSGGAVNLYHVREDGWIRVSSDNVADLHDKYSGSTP
Protocol: as §1, §2, §3, §4

Sequence of rabbit reticulocyte 20S proteasome, post-acid (PA) activity (G1T235 entry or part of it): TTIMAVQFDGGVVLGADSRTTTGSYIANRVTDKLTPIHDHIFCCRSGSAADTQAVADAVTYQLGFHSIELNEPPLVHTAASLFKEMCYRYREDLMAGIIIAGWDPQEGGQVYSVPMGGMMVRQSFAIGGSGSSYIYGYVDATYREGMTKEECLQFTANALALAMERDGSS

CCc1ccc(OCC(=O)N(Cc2nc(-c3ccc(OC)cc3)no2)C(C)C)cc1 [Compound 7]
Inhibition of post-acid activity (NI) [1]: NI | Inhibition of trypsin-like activity (NI) [2]: NI | IC50 [3]: 0.09 ± 0.006 µM

CC(C)N(Cc1nc(-c2ccc(Oc3ccccc3)cc2)no1)C(=O)COc1ccc(Br)cc1 [Compound 24]
Inhibition of post-acid activity (NI) [4]: NI | IC50 [5]: 0.61 ± 0.03 µM | melting point: 87 °C | IC50 [6]: 10.8 ± 0.4 µM

COc1ccc(-c2noc(CN(C(=O)COc3ccc(Br)cc3)C(C)C)n2)cc1 [Compound 12]
Inhibition of post-acid activity (NI) [1]: NI | Inhibition of trypsin-like activity (NI) [2]: NI | IC50 [3]: 0.1 ± 0.01 µM

CC(C)N(Cc1nc(CN2CCOCC2)no1)C(=O)COc1ccc(Br)cc1 [Compound 33]
Inhibition of post-acid activity (NI) [4]: NI | IC50 [5]: 78.6 ± 1.6 µM | melting point: 110 °C | inhibition at 100 µM [6]: 42%

CC(C)N(Cc1nc(-c2cccc3ccccc23)no1)C(=O)COc1ccc(Br)cc1 [Compound 32]
Inhibition of post-acid activity (NI) [4]: NI | inhibition at 100 µM ([5]; 100 μM inhibitor, read-out: % inhibition (inhibitor concentration) on chymotrypsin-like activity): 30% | melting point: 114 °C | IC50 [6]: 29.1 ± 0.9 µM

Cc1cccc(-c2noc(CN(C(=O)COc3ccc(Br)cc3)C(C)C)n2)c1 [Compound 4]
Inhibition of post-acid activity (NI) [1]: NI | % inhibition (inhibitor concentration) on trypsin-like activity ([2]; 50 μM inhibitor): 7.3% | IC50 [3]: 0.51 ± 0.07 µM

COc1ccc(-c2noc(CN(C(=O)C(C)Oc3ccccc3)C(C)C)n2)cc1 (stereo not drawn) [Compound 14]
Inhibition of post-acid activity (NI) [1]: NI | Inhibition of trypsin-like activity (NI) [2]: NI | IC50 [3]: 8.05 ± 0.83 µM

Cc1cccc(OCC(=O)N(Cc2nc(-c3cccc(C)c3)no2)C(C)C)c1 [Compound 15]
Inhibition of post-acid activity (NI) [1]: NI | Inhibition of trypsin-like activity (NI) [2]: NI | IC50 [3]: ~27 µM

CCOc1ccc(C(=O)N(Cc2nc(-c3ccc(OC)cc3)no2)C(C)C)cc1 [Compound 20]
Inhibition of post-acid activity (NI) [1]: NI | Activation × of trypsin-like activity ([2]; 50 μM compound, fold activation): Activation × 3.4 (50 μM) | IC50 [7]: ~18 µM

COc1ccc(-c2noc(CN(C(=O)COc3ccc(Br)cc3)C(C)C)n2)cc1OC [Compound 25]
Inhibition of post-acid activity (NI) [4]: NI | IC50 [5]: 0.037 ± 0.003 µM | melting point: 135 °C | Inhibition of trypsin-like activity (NI) ([6]; screened at 100 and 50 μM): NI

CCN(CC)Cc1noc(CN(C(=O)COc2ccc(Br)cc2)C(C)C)n1 [Compound 34]
Inhibition of post-acid activity (NI) [4]: NI | IC50 [5]: 30.9 ± 2.3 µM | melting point: 168 °C | inhibition at 100 µM [6]: 28%

CC(C)N(Cc1nc(CN2CCCCC2)no1)C(=O)COc1ccc(Br)cc1 [Compound 35]
Inhibition of post-acid activity (NI) [4]: NI | IC50 [5]: 37.3 ± 4.2 µM | melting point: 144 °C | inhibition at 100 µM [6]: 47%

CC(C)N(Cc1nc(C(C)(C)C)no1)C(=O)COc1ccc(Br)cc1 [Compound 29]
IC50 [1]: 28 ± 3 µM | Inhibition of trypsin-like activity (NI) [2]: NI | IC50 [3]: 81 ± 4 µM

COc1ccc(C(=O)NCCc2nnc(SCC(=O)Nc3cc(C)ccc3OC)n2C)cc1 [Compound 22]
inhibition at 100 µM ([1]; 100 μM inhibitor, read-out: % inhibition (inhibitor concentration) on post-acid activity): 16% | % inhibition (inhibitor concentration) on trypsin-like activity ([2]; 100 μM inhibitor): 22% (100 μM) | IC50 [7]: 80 µM

COc1ccc(-c2noc(CN(C(=O)COc3ccc(C)cc3)C(C)C)n2)cc1 [Compound 10]
Inhibition of post-acid activity (NI) [1]: NI | Inhibition of trypsin-like activity (NI) [2]: NI | IC50 [3]: 0.71 ± 0.04 µM

Cc1noc(CN(C(=O)COc2ccc(Br)cc2)C(C)C)n1 [Compound 27]
IC50 [1]: 76 ± 2 µM | Inhibition of trypsin-like activity (NI) [2]: NI | IC50 [3]: 12.3 ± 0.3 µM

COc1ccc(OCC(=O)N(Cc2nc(-c3cccc(C)c3)no2)C(C)C)cc1 [Compound 5]
Inhibition of post-acid activity (NI) [1]: NI | Inhibition of trypsin-like activity (NI) [2]: NI | IC50 [3]: 0.91 ± 0.12 µM

COc1ccc(Cl)cc1NC(=O)CSc1nnc(C(CO)NC(=O)c2ccccc2)n1C (stereo not drawn) [Compound 23]
Inhibition of post-acid activity (NI) [1]: NI | % inhibition (inhibitor concentration) on trypsin-like activity ([2]; 100 μM inhibitor): 50% (100 μM) | IC50 [7]: 85 µM

CC(C)c1noc(CN(C(=O)COc2ccc(Br)cc2)C(C)C)n1 [Compound 28]
IC50 [1]: 45 ± 1 µM | Inhibition of trypsin-like activity (NI) [2]: NI | IC50 [3]: 12.3 ± 0.3 µM

CCc1ccc(OCC(=O)N(Cc2nc(-c3cccc(C)c3)no2)C(C)C)cc1 [Compound 3]
Inhibition of post-acid activity (NI) [1]: NI | Inhibition of trypsin-like activity (NI) [2]: NI | IC50 [3]: 0.17 ± 0.01 µM

C=CCN(Cc1nc(-c2ccccc2)no1)C(=O)COc1ccc(C)cc1 [Compound 18]
Inhibition of post-acid activity (NI) [1]: NI | Inhibition of trypsin-like activity (NI) [2]: NI | IC50 [3]: 0.33 ± 0.03 µM
